The target in assay [1] is T1, DDR1 (Homo sapiens, UniProt Q08345). The assay is described as follows: DDR1 cell based assay (PathHunter U2OS DDR1 assay). Further details: host or cells: U2OS-DDR1 (PathHunter). As to conditions: U2OS-DDR1 cells, bovine Type II Collagen 20 μg/ml. In a few lines:
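Receptor activation measured by enzyme-fragment complementation luminescence in engineered U2OS cells. Compound added 30 min before overnight challenge with 20 μg/ml bovine collagen II; data scaled between vehicle and collagen-stimulated controls, IC50 derived by four-parameter variable-slope fitting.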

The target in assay [2] is T2, DDR2 (Homo sapiens, UniProt Q16832).
T2 sequence (Q16832 22-855): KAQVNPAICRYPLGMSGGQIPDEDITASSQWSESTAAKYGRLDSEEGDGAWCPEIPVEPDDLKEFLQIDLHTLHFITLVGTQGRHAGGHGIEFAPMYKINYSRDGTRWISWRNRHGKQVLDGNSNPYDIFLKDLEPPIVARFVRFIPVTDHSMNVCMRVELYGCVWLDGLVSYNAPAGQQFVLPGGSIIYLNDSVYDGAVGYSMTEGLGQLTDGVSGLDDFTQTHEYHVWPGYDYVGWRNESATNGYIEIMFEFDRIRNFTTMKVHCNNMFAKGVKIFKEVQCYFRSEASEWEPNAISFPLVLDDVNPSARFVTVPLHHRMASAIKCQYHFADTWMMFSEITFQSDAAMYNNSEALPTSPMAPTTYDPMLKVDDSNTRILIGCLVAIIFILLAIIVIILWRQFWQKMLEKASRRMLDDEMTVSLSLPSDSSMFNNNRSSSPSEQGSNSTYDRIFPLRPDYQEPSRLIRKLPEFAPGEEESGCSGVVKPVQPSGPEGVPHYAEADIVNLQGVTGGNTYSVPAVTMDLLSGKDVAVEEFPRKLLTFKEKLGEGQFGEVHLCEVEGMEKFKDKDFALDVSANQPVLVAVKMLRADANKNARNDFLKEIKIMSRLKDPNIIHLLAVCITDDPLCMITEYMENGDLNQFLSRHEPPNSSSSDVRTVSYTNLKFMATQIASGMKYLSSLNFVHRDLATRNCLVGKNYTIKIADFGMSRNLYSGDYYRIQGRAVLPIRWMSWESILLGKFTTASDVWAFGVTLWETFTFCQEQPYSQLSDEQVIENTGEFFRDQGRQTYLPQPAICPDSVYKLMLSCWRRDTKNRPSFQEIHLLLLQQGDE
The assay is described as follows: DDR2 cell based assay (phospho-ELISA in HEK293T-DDR2 recombinant cells). As to conditions: bovine Type II Collagen 50 μg/ml. Further details: expressed in transfected cells; host or cells: HEK293T-DDR2 recombinant cells. In short, it runs like this: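 HEK293T-DDR2 cells, serum-starved 3 h, treated with compounds 30 min before 3 h stimulation with bovine type II collagen at 50 μg/ml. Lysate phospho-DDR2 measured by ELISA, normalized to maximal-inhibition and collagen II (20 μg/ml) controls; IC50 from variable-slope sigmoidal fit.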
A general note: An ELISA detects its analyte on a solid surface through an enzyme-linked reagent.

In assay [3] the target is T1, DDR1. The assay is described as follows: DDR1 binding assay (LanthaScreen Europium Kinase Binding assay). The conditions noted are these: binding assay, 5 nM DDR1, 20 nM Kinase Tracer 178; Ki from IC50 by Cheng-Prusoff; read-out: Ki DDR1. Set-up: purchased Carna Biosciences. In a few lines:
(§1)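 TR-FRET tracer-displacement format: 665/615 nm emission ratio (340 nm excitation) gave IC50 by 4-parameter fit, then Ki via Cheng-Prusoff. Each kinase at 5 nM with 2 nM Eu-anti-GST antibody and Tracer 178 (DDR1 20 nM, DDR2 10 nM), 1 h, room temperature, HEPES pH 7.5 buffer.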
In general terms: TR-FRET usually uses a lanthanide donor and a delayed reading to cut background.

Assay [4] addresses T2, DDR2. The assay is described as follows: DDR2 binding assay (LanthaScreen Europium Kinase Binding assay). Further details: purchased Life Technologies. The conditions noted are these: binding assay, 5 nM DDR2, 10 nM Kinase Tracer 178; Ki from IC50 by Cheng-Prusoff; read-out: Ki DDR2. In a few lines: as §1

Where only a bound is given, the exact number is not on record here.

T1 sequence (Q08345 19-913): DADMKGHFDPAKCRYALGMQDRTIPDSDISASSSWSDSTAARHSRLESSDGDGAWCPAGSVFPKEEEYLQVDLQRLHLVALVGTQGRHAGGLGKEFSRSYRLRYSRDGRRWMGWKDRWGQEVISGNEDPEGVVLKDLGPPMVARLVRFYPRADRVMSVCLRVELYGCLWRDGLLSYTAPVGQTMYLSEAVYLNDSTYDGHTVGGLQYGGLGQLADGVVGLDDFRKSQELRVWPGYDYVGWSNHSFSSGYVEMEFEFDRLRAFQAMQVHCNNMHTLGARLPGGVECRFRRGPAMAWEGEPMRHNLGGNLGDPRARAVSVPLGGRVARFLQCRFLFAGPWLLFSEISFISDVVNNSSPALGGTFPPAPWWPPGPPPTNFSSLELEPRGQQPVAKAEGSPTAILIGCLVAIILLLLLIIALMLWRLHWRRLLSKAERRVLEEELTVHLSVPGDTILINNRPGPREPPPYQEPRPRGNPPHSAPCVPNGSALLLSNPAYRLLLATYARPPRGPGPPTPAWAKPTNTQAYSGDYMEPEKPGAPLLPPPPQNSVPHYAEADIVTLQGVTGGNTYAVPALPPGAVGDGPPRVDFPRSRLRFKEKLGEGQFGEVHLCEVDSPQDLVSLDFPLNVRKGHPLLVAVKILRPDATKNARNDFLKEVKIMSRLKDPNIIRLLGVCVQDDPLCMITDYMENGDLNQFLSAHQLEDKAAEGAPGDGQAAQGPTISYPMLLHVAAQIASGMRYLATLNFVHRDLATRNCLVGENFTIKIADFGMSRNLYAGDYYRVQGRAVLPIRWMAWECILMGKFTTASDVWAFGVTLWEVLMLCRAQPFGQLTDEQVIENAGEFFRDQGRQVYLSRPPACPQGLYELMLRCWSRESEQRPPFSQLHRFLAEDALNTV

In general, IC50 refers to the point on the concentration scale where inhibition reaches its midpoint. The term Ki denotes the equilibrium dissociation constant of an inhibitor or competing ligand from its target. For `O=C(Nc1cc(F)cc(OC(F)(F)F)c1)c1csc2c1CCN(Cc1cnc3[nH]ncc3c1)C2` [Example 174, 6-((1H-pyrazolo[3,4-b]pyridin-5-yl)methyl)-N-(3-fluoro-5-(trifluoromethoxy)phenyl)-4,5,6,7-tetrahydrothieno[2,3-c]pyridine-3-carboxamide], the half-maximal inhibitory concentration (IC50) was less than 25 nM at DDR1 [1] and 50 to 80 nM on DDR2 [2]. The Ki at DDR1 [3] and on DDR2 [4] was less than 25 nM in each case.
Turning to `N#Cc1cc(NC(=O)c2csc3c2CCN(C(=O)c2cnn4ccncc24)C3)cc(C(F)(F)F)c1` [Example 184, N-(3-cyano-5-(trifluoromethyl)phenyl)-6-(pyrazolo[1,5-a]pyrazine-3-carbonyl)-4,5,6,7-tetrahydrothieno[2,3-c]pyridine-3-carboxamide], the IC50 on DDR1 [1] was less than 25 nM; on DDR2 [2], 25 to 50 nM. For the same compound, the inhibition constant Ki at DDR1 [3] and on DDR2 [4] was less than 25 nM throughout.

Values taken from patent US20240391936A1, “TETRAHYDROTHIENO PYRIDINE DERIVATIVES AS DDRS INHIBITORS” (CHIESI FARMACEUTICI S.P.A., priority 2021, published 2024).
